From ChEMBL document CHEMBL4699592, “Nature-Inspired (di)Azine-Bridged Bisindole Alkaloids with Potent Antibacterial In Vitro and In Vivo Efficacy against Methicillin-Resistant Staphylococcus aureus” (J Med Chem, 2020)
The source made the active and inactive calls. No cut-off for these calls is given here.

What was measured:
Staphylococcus aureus [1] = assay: Antibacterial activity against methicillin-resistant Staphylococcus aureus USA300 LAC at 0.15 to 25 uM incubated for 24 hrs under low glucose medium by resazurin dye based fluorescence assay; type: functional, organism-based; settings: dose microM 0.15-25, time 24.0 hrs
Staphylococcus aureus [2] = assay: Antibacterial activity against methicillin susceptible Staphylococcus aureus ATCC 25923 at 0.78 to 100 uM after 24 hrs by broth microdilution method; type: functional, organism-based; settings: dose microM 0.78-100, time 24.0 hrs
Pseudomonas aeruginosa [3] = assay: Synergistic antibacterial activity against Pseudomonas aeruginosa ATCC 27853 assessed as FIC after 24 hrs in presence of colistin by checkerboard assay relative to test compound MIC; type: functional
Klebsiella pneumoniae [4] = assay: Synergistic antibacterial activity against Klebsiella pneumoniae ATCC 700603 assessed as FICI after 24 hrs in presence of colistin by checkerboard assay; type: functional
[5] = Solubility of compound in pH 7.7 PBS buffer; type: physicochemical
HEK293 = assay: Cytotoxicity against HEK293 cells assessed as reduction in cell viability at >12.5 uM measured after 48 hrs by resazurin dye based fluorescence assay; settings: human, hek293, 48 h
Staphylococcus aureus [6] = assay: Bactericidal activity against […] Staphylococcus aureus ATCC 700699 assessed as colony forming units at 5 fold MIC measured after 24 hrs by time kill assay; type: functional
Acinetobacter baumannii [7] = assay: Antibacterial activity against Acinetobacter baumannii ATCC BAA-1605 after 24 hrs by broth microdilution method; type: functional
[8] = Solubility of compound in pH 7.7 DMSO:PBS solution; type: physicochemical; settings: buffer
Escherichia coli [9] = assay: Antimicrobial activity against Escherichia coli ATCC BAA 2469 after 24 hrs by broth microdilution assay; type: functional
Klebsiella pneumoniae [10] = assay: Synergistic antibacterial activity against Klebsiella pneumoniae ATCC 700603 assessed as FIC after 24 hrs in presence of colistin by checkerboard assay relative to colistin; type: functional
Staphylococcus aureus [11] = assay: Antibacterial activity against vancomycin-sensitive Staphylococcus aureus T144 infected in Balb/c mouse peritonitis-sepsis model assessed as increase in survival at 5 mg/kg, ip measured for 48 hrs; type: functional, organism-based
Cell membrane [12] = assay: Induction of cell membrane permeabilization in methicillin sensitive Staphylococcus aureus ATCC 29213 at 5 fold MIC measured after 30 mins by propidium iodide/DAPI staining based fluorescence microscopic analysis; type: subcellular
Klebsiella pneumoniae [13] = assay: Antibacterial activity against Klebsiella pneumoniae ATCC 700603 after 24 hrs by broth microdilution method; type: functional
[14] = molecular target: Pyruvate kinase PKM (Oryctolagus cuniculus) (UniProt P11974); assay: Inhibition of rabbit muscle pyruvate kinase up to 12.5 uM using phosphoenolpyruvate as substrate measured for 5 mins by LDH-coupled assay; settings: dose microM <=12.5, time 5.0 min
[15] = Cytotoxicity against human CLS-54 cells assessed as reduction in cell viability at >12.5 uM measured after 48 hrs by resazurin dye based fluorescence assay; settings: cls-54, 48 h
Escherichia coli [16] = assay: Synergistic antimicrobial activity against Escherichia coli ATCC BAA 2469 assessed as FIC after 24 hrs in presence of colistin by checkerboard assay relative to colistin; type: functional
Staphylococcus aureus [17] = assay: Antibacterial activity against methicillin-resistant pyruvate kinase deficient Staphylococcus aureus USA300 LAC at 0.15 to 25 uM incubated for 24 hrs under low pyruvate containing medium by resazurin dye based fluorescence assay; type: functional, organism-based; settings: dose microM 0.15-25, time 24.0 hrs
Enterococcus faecium [18] = assay: Antibacterial activity against vancomycin-resistant Enterococcus faecium ATCC 700221 at 0.78 to 100 uM after 24 hrs by broth microdilution method; type: functional, organism-based; settings: dose microM 0.78-100, time 24.0 hrs
Acinetobacter baumannii [19] = assay: Synergistic antibacterial activity against Acinetobacter baumannii ATCC BAA-1605 assessed as FICI after 24 hrs in presence of colistin by checkerboard assay; type: functional
Escherichia coli [20] = assay: Synergistic antimicrobial activity against Escherichia coli ATCC BAA 2469 assessed as FIC after 24 hrs in presence of colistin by checkerboard assay relative to test compound MIC; type: functional
Cell membrane [21] = assay: Induction of cell membrane permeabilization in methicillin resistant Staphylococcus aureus ATCC 700699 at 5 fold MIC measured at 5 mins interval for 2 hrs by propidium iodide staining based fluorescence assay
THP-1 = assay: Cytotoxicity against human THP-1 cells assessed as reduction in cell viability at >=12.5 uM measured after 48 hrs by resazurin dye based fluorescence assay; settings: thp-1, 48 h
Escherichia coli [22] = assay: Synergistic antimicrobial activity against Escherichia coli ATCC BAA 2469 assessed as FICI after 24 hrs in presence of colistin by checkerboard assay; type: functional
HepG2 = assay: Cytotoxicity against human HepG2 cells assessed as reduction in cell viability at >12.5 uM measured after 48 hrs by resazurin dye based fluorescence assay; settings: hepg2, 48 h
Pseudomonas aeruginosa [23] = assay: Synergistic antibacterial activity against Pseudomonas aeruginosa ATCC 27853 assessed as FICI after 24 hrs in presence of colistin by checkerboard assay; type: functional
[24] = Selectivity index, ratio of IC50 for cytotoxicity against human MRC5 cells to MIC90 for antibacterial activity against […] Staphylococcus aureus ATCC 700699; type: toxicity, cell-based; settings: read-out: Selectivity Index
Staphylococcus aureus [25] = assay: Antibacterial activity against methicillin-resistant Staphylococcus aureus USA300 LAC at 0.15 to 25 uM incubated for 24 hrs under low pyruvate containing medium by resazurin dye based fluorescence assay; type: functional, organism-based; settings: dose microM 0.15-25, time 24.0 hrs
Enterococcus faecalis [26] = assay: Antibacterial activity against Enterococcus faecalis ATCC 51299 at 0.78 to 100 uM after 24 hrs by broth microdilution method; type: functional, organism-based; settings: dose microM 0.78-100, time 24.0 hrs
Staphylococcus aureus [27] = assay: Induction of cell lysis in Staphylococcus aureus ATCC 700699 assessed as decrease in turbidity at 8 fold MIC measured after 2 hrs by photometric method; type: functional, organism-based
Enterococcus faecalis [28] = assay: Antibacterial activity against Enterococcus faecalis ATCC 29212 at 0.78 to 100 uM after 24 hrs by broth microdilution method; type: functional, organism-based; settings: dose microM 0.78-100, time 24.0 hrs
Staphylococcus aureus [29] = assay: Antibacterial activity against vancomycin-sensitive Staphylococcus aureus T144 infected in Balb/c mouse assessed as reduction in bacterial burden at 5 mg/kg applied topically measured after 12 days by colony counting method; type: functional, organism-based; settings: time 12.0 day
Staphylococcus aureus [30] = assay: Antibacterial activity against vancomycin-sensitive Staphylococcus aureus T144 infected in Balb/c mouse assessed as increase in wound healing at 5 mg/kg applied topically measured daily for 12 days by microscopic analysis; type: functional, organism-based; settings: time 12.0 day
Enterococcus faecium [31] = assay: Antibacterial activity against vancomycin-resistant Enterococcus faecium ATCC 35667 at 0.78 to 100 uM after 24 hrs by broth microdilution method; type: functional, organism-based; settings: dose microM 0.78-100, time 24.0 hrs
Cell membrane [32] = assay: Induction of cell membrane permeabilization in GFP-expressing Staphylococcus aureus ATCC 700699 assessed as increase in cellular ATP leakage at 5 fold MIC measured after 0.5 hrs by Bactiter-glo assay; type: subcellular
Staphylococcus aureus [33] = assay: Bactericidal activity against […] Staphylococcus aureus ATCC 700699 assessed as reduction in bacterial viability at 5 fold MIC incubated for 6 hrs by time kill assay relative to control; type: functional
Cell membrane [34] = assay: Induction of cell membrane permeabilization in GFP-expressing Staphylococcus aureus ATCC 700699 assessed as increase in GFP efflux at 5 fold MIC measured after 6 hrs by fluorescence assay
Staphylococcus aureus [35] = assay: Inhibition of Staphylococcus aureus ATCC 700699 N-terminal His6-tagged pyruvate kinase expressed in Escherichia coli NiCo21(DE3) at 12.5 uM using phosphoenolpyruvate as substrate measured for 5 mins by LDH-coupled assay

Pyruvate kinase PKM (Oryctolagus cuniculus), sequence (P11974 whole entry): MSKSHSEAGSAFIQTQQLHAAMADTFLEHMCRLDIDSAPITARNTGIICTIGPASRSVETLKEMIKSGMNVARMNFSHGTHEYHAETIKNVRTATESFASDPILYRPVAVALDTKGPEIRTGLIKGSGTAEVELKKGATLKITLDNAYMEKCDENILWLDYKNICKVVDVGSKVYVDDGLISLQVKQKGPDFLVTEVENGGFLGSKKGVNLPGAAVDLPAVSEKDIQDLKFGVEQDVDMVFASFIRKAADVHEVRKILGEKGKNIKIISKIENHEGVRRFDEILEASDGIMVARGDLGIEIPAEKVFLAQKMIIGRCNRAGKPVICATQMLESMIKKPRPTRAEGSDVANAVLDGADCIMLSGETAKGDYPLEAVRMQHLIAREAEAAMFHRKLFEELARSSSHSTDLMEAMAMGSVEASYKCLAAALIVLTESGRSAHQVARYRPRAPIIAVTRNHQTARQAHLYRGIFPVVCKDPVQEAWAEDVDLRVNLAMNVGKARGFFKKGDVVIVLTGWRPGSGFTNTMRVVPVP

Clc1ccc2[nH]cc(-c3cccc(-c4c[nH]c5ccc(Cl)cc45)n3)c2c1
Activity (Staphylococcus aureus [1]): Active
Activity (Staphylococcus aureus [2]): Active
FIC (Pseudomonas aeruginosa [3]): <=0.0625
fractional inhibitory concentration index (FICI) (Klebsiella pneumoniae [4]): <=0.25
solubility [5]: Insoluble
Activity (HEK293): Toxic
Activity (Staphylococcus aureus [6]): <10 CFU/ml
MIC (Acinetobacter baumannii [7]): > 100 µM
solubility [8]: Insoluble
MIC (Escherichia coli [9]): > 100 µM
FIC (Klebsiella pneumoniae [10]): 0.125
Activity (Staphylococcus aureus [11]): Active
Activity (Cell membrane [12]): Active
MIC (Klebsiella pneumoniae [13]): > 100 µM
inhibition [14]: inactive
Activity [15]: Toxic
FIC (Escherichia coli [16]): 0.064
Activity (Staphylococcus aureus [17]): Active
Activity (Enterococcus faecium [18]): Active
fractional inhibitory concentration index (FICI) (Acinetobacter baumannii [19]): <=0.3125
FIC (Escherichia coli [20]): <=0.0313
Activity (Cell membrane [21]): Active
Activity (THP-1): Toxic
fractional inhibitory concentration index (FICI) (Escherichia coli [22]): <=0.0953
Activity (HepG2): Toxic
fractional inhibitory concentration index (FICI) (Pseudomonas aeruginosa [23]): <=0.5625
selectivity ratio [24]: 32
Activity (Staphylococcus aureus [25]): Active
Activity (Enterococcus faecalis [26]): Active
Activity (Staphylococcus aureus [27]): inactive
Activity (Enterococcus faecalis [28]): Active
Activity (Staphylococcus aureus [29]): Active
Activity (Staphylococcus aureus [30]): Active
Activity (Enterococcus faecium [31]): Active
Activity (Cell membrane [32]): Active
fold change (FC) (Staphylococcus aureus [33]): 10000
Activity (Cell membrane [34]): Active
inhibition (Staphylococcus aureus [35]): inactive
